Results: patent US20240002442A1, “CYCLIC PEPTIDES WITH ANTIMICROBIAL PROPERTIES” (priority 2020, published 2024)
“And” between values parts separate entries of the source, which are not always exact repeats. Equal values may be shown once. Read-outs that look alike come from different tables or passages of the source.

Tests used:
[1] = system: Burkholderia cenocepacia ATCC BAA-245
[2] = system: Bacillus subtilis 168
[3] = system: Bacteroides fragilis KLE 2244
[4] = system: Staphylococcus aureus HG003
[5] = system: Pseudomonas aeruginosa PA14
[6] = system: Escherichia coli K-12 MG1655
[7] = system: Shigella sonnei ATCC 25931
[8] = system: Salmonella enterica Enteritidis AR496
[9] = system: Escherichia coli AR350
[10] = system: Acinetobacter baumannii ATCC 19606
[11] = system: Escherichia coli MG1655
[12] = system: Veillonella ratti KLE 2365
[13] = system: Photorhabdus australis DSM 17609
[14] = system: Clostridium bifermentans KLE 2329
[15] = system: Escherichia coli ATCC 25922
[16] = system: Pseudomonas aeruginosa PA01
[17] = system: Salmonella enterica typhimurium LT2A TCC 19585
[18] = system: Yersinia pseudotuberculosis ATCC 6904
[19] = system: Limosilactobaccilus reuteri LTH5448
[20] = system: Vibrio vulnificus KLE δ-1125
[21] = system: Enterobacter cloaceae ATCC 13047
[22] = system: Bacteroides stercoris KLE 2537
[23] = system: Proteus mirabilis H14320
[24] = system: Moraxella catarrhalis ATCC 25248
[25] = system: Klebsiella pneumoniae AR347
[26] = system: Proteus mirabilis BB2000

`CC(C)C(NC(=O)C1NC(=O)C(CO)NC(=O)C(CC(N)=O)NC(=O)C(N)Cc2c[nH]c3cc(ccc23)C1C(N)=O)C(=O)NC1Cc2cn(cn2)C(c2ccc(O)cc2)C(C(=O)NC(CCCNC(=N)N)C(=O)NC(Cc2ccccc2)C(=O)O)NC(=O)C(CO)NC1=O` (stereo not shown) [Formula (I)] gave an MIC [1] of over 1000 µg/mL, an MIC ([2]; Bacillus subtilis 168) of over 1000 µg/mL and an MIC [3] of over 128 µg/mL. It also gave an MIC ([4]; Staphylococcus aureus HG003) of over 1000 µg/mL, an MIC ([5]; Pseudomonas aeruginosa PA14) of 16 µg/mL and an MIC [6] of 16 µg/mL. It also gave an MIC [7] of 4 µg/mL, an MIC [8] of 8 µg/mL and an MIC [9] of 8 µg/mL. The MIC ([10]; Acinetobacter baumannii ATCC 19606) was 16 µg/mL, the MIC ([11]; Escherichia coli MG1655) was 16 µg/mL and the MIC [12] was 16 µg/mL. The MIC ([13]; Photorhabdus australis DSM 17609 (producer strain; listed twice)) was 250 µg/mL and >128 µg/mL, the MIC [14] was over 128 µg/mL and the MIC [15] was 8 µg/mL. For the same compound, the MIC ([16]; Pseudomonas aeruginosa PA01) was 8 µg/mL, the MIC [17] was 8 µg/mL and the MIC ([18]; ATCC 6904) was 8 µg/mL. The MIC [19] was over 128 µg/mL, the MIC [20] was 8 µg/mL and the MIC [21] was 16 µg/mL. It also gave an MIC [22] of over 128 µg/mL, an MIC ([23]; Proteus mirabilis H14320) of 64 µg/mL and an MIC [24] of 2 µg/mL. For the same compound, the MIC [25] was 64 µg/mL and the MIC ([26]; Proteus mirabilis BB2000) was 125 µg/mL.
For `CC(C)C(NC(=O)C1NC(=O)C(CO)NC(=O)C(CC(N)=O)NC(=O)C(NC(=O)C(CO)NC(=O)C2CCCN2)Cc2c[nH]c3cc(ccc23)C1C(N)=O)C(=O)NC1Cc2cn(cn2)C(c2ccc(O)cc2)C(C(=O)NC(CCCNC(=N)N)C(=O)NC(Cc2ccccc2)C(=O)O)NC(=O)C(CO)NC1=O` (stereo not shown) [Formula (III)], the MIC [1] was over 1000 µg/mL, the MIC [2]; 168 was over 1000 µg/mL and the MIC ([4]; HG003) was over 1000 µg/mL. It also gave an MIC ([5]; PA14) of 32 µg/mL, an MIC [8] of 32 µg/mL and an MIC [9] of 16 µg/mL. The MIC ([10]; ATCC 19606) was 8 µg/mL, the MIC ([11]; MG1655) was 8 µg/mL and the MIC ([13]; DSM 17609) was 500 µg/mL. The MIC [16] was 16 µg/mL, the MIC ([18]; Yersinia pseudotuberculosis ATCC 6904) was 16 µg/mL and the MIC ([23]; H14320) was 32 µg/mL. For the same compound, the MIC [25] was 125 µg/mL and the MIC ([26]; BB2000) was 64 µg/mL.
